Source: publication PMC3671111, “A Phase I, open-label, randomized, crossover study in three parallel groups to evaluate the effect of Rifampicin, Ketoconazole, and Omeprazole on the pharmacokinetics of THC/CBD oromucosal spray in healthy volunteers” (SpringerPlus, 2013)
Values joined by “and” are separate entries in the source; they are usually repeats but may differ in a detail not shown here. Identical values can stand only once. Marks after values point to notes of the source that are not given here.

Key:
[1] = male, human, in vivo, 9 days
Excerpt: A total of 36 healthy males subjects enrolled and were divided into three groups of 12. Within each group participants were randomized to one of two treatment sequences with six subjects receiving each sequence.
The safety endpoints were blood pressure, heart rate, ECG, clinical laboratory data (haematology and biochemistry), urinalysis, AEs and concomitant medications, recorded at each visit.

[2] = Phase I drug-drug interaction PK, Group 2: THC/CBD spray alone or with ketoconazole, plasma by GC-MS; details: for AUC(0-inf) / AUC(0-t) / CL/F / Cmax / Kel / Varea/F / t½ / Tmax: plasma; for AUC(0-inf) / AUC(0-t) / CL/F / Cmax / Kel / Varea/F / t½: mean (SD); for Tmax: median (range)
Experimental: (§1) Subjects received rifampicin on Days 1-9. […] Subjects received ketoconazole on Days 1-4.
(§2) Blood samples were collected at specified times and stored on ice (except rifampicin PK samples which were stored in iced water) prior to processing and storage. Plasma samples were separated by centrifugation (approximately 2500 rpm × 15 minutes at 4°C). Samples were stored in 4 mL amber glass screw top glass vials with PTFE lined screw caps labelled with Guys Drug Research (Quintiles Limited) labels. The aliquots were stored in clearly labelled containers in a freezer set at or below -20°C, until shipped for assay. Samples were shipped on dry ice at the appropriate time-points.
(§3) The assay validation was undertaken by Advanced Bioanalytical Service Laboratories (London, UK), who developed the technique after reviewing the literature, which was based on the methodology adopted by three different groups (Foltz et al. [1983]; Goodall & Basteyns [1995]; Kemp et al. [1995]), and designed with reference to FDA guidelines for industry (FDA Guidance for Industry [2012]). The method utilised protein precipitation, solvent extraction and derivatisation for the sample preparation and then sample analysis by capillary gas chromatography and detection by a mass spectrometer (GC-MS). The validation procedure investigated the calibration model with the best regression fit over the concentration range 0.1 - 100 ng/mL for CBD, THC and 11-OH-THC, as well as precision and accuracy of the method, stability, carry-over, and specificity.
(§4) Human plasma from healthy volunteers was used to prepare the standards and quality control (QC) samples, with analytes extracted using hexane/ethyl acetate (7:1 ratio), derivatised with N,O-Bis(trimethylsilyl)trifluoroacetamide. Analytic grade THC (Sigma, UK), CBD (Sigma, UK) and 11-OH-THC (Radian International and Cerillant, UK) were obtained, and three sets of CBD, THC and 11-OH-THC were used to support the study. Deuterated THC-d3 (Sigma, UK) was used as the internal standard. The GC-MS equipment was a Hewlett Packard 6890 Gas Chromatograph attached to a Hewlett Packard 5973 Mass Selective Detector. Data handling was carried out using an MS Chemstation System and the peak area ratio of the analytes to the internal standard was calculated in Excel (2000). The concentrations were calculated from the ratio data using least squares ln(y) on ln(x) regression performed in Excel (2000), and were then checked manually. Regression analysis was undertaken to find the regression model that best described the calibration data (for details, see ([Miller & Miller 1992])).
(§5) A 0.5 mL aliquot of test sample, QC or blank plasma was placed into a test tube. The blank plasma was spiked with 50 μL of the appropriate standard solution to produce the calibration standards. 50 μL of the internal standard was added to each test tube. The samples were then diluted by the addition of 500 μL of 0.1% (w/v) ascorbic acid and the protein precipitated by the addition of 1.0 mL of acetonitrile. The proteins were removed by centrifugation and the supernatant concentrated to 1 mL using nitrogen at 50 °C. The samples were then basified by the addition of 300 μL of 5M sodium hydroxide and the analytes extracted by the addition of 2.0 mL of 7:1 hexane:ethyl acetate. After mixing for 16 minutes the tubes were centrifuged and the top layer transferred into clean 3 dram vials. The solvent was removed using nitrogen at 70 °C and the dried extract resuspended in 100 μL of BSTFA and transferred to microvials, capped and placed at 70 °C for 30 minutes to derivatise the analytes. The microvials were then cooled and loaded onto the autosampler tray for analysis where 1 μL was injected onto the GC-MS system.

[3] = Phase I drug-drug interaction PK, Group 3: THC/CBD spray alone or with omeprazole, plasma by GC-MS; details: for AUC(0-inf) / AUC(0-t) / CL/F / Cmax / Kel / Varea/F / t½ / Tmax: n = 12, plasma; for AUC(0-inf) / AUC(0-t) / CL/F / Cmax / Kel / Varea/F / t½: mean (SD); for Tmax: median (range); for Cmax and AUC % Co-efficient of Variation (CV%) range: inter-subject variability
Experimental: as §1, §2, §3, §4, §5

[4] = Phase I drug-drug interaction PK, Group 1: THC/CBD spray alone or with rifampicin, plasma by GC-MS; details: for AUC(0-inf) / AUC(0-t) / CL/F / Cmax / Kel / Varea/F / t½ / Tmax: n = 12, plasma; for AUC(0-inf) / AUC(0-t) / CL/F / Cmax / Kel / Varea/F / t½: mean (SD); for Tmax: median (range)
Experimental: as §1, §2, §3, §4, §5

[5] = Ketoconazole and THC/CBD spray vs THC/CBD spray alone, no-interaction range 0.80 to 1.25
[6] = THC/CBD spray 4 sprays and ketoconazole 400 mg at end of 5-day dosing period, n = 11
[7] = THC/CBD spray alone, single dose 4 sprays (10.8/10 mg), ketoconazole group, n = 12
[8] = THC/CBD spray co-administered with ketoconazole vs alone
[9] = Omeprazole and THC/CBD spray vs THC/CBD spray alone, no-interaction range 0.80 to 1.25
[10] = THC/CBD spray 4 sprays and omeprazole 40 mg at end of 6-day dosing period
[11] = THC/CBD spray alone, single dose 4 sprays (10.8/10 mg), omeprazole group
[12] = THC/CBD spray co-administered with omeprazole vs alone
[13] = Rifampicin and THC/CBD spray vs THC/CBD spray alone, no-interaction range 0.80 to 1.25
[14] = THC/CBD spray 4 sprays and rifampicin 600 mg after repeated daily dosing
[15] = THC/CBD spray alone, single dose 4 sprays (10.8/10 mg), rifampicin group
[16] = THC/CBD spray co-administered with rifampicin vs alone

For `CO[C@H]1/C=C/O[C@@]2(C)Oc3c(C)c(O)c4c(O)c(c(/C=N/N5CCN(C)CC5)c(O)c4c3C2=O)NC(=O)/C(C)=C\C=C\[C@H](C)[C@H](O)[C@@H](C)[C@@H](O)[C@@H](C)[C@H](OC(C)=O)[C@@H]1C` [Rifampicin, rifampicin], the “Dysgeusia (TEAE)” value [1] was 1 (8) No. of subjects (%), the “Headache (TEAE)” value [1] was 0 No. of subjects (%) and the “Somnolence (TEAE)” value [1] was 0 No. of subjects (%).
In the case of `CCCCCc1cc(O)c2c(c1)OC(C)(C)[C@@H]1CCC(C)=C[C@@H]21` [THC, Δ9-tetrahydrocannabinol], the “Geometric mean ratio of AUC(0-inf), point estimate” value (shortened to “Geometric mean ratio of AUC(0-inf)”) [2, 5] is reported as 1.840, the “Geometric mean ratio of AUC(0-t), point estimate” value (“Geometric mean ratio of AUC(0-t)” below) [2, 5] is reported as 1.770 and the “Geometric mean ratio of Cmax, point estimate” value (“Geometric mean ratio of Cmax” below) [2, 5] is reported as 1.252. The “AUC(0-inf)” value [2, 6] was 16.76 (13.80) h*ng/mL, the “AUC(0-t)” value [2, 6] was 15.38 (13.43) h*ng/mL and the CL/F [2, 6] was 920 L/h and 920 (450) L/h. For the same compound, the Cmax [2, 6] was 3.36 (1.65) ng/mL, the Kel [2, 6] was 0.189 (0.078) h^-1 and the Varea/F [2, 6] was 5111 (2221) L. The t½ [2, 6] was 4.43 (2.19) h, the Tmax [2, 6] was 1.75 (1.00-3.00) h and the “AUC(0-inf)” value [2, 7] was 9.22 (5.94)^a h*ng/mL. For the same compound, the “AUC(0-t)” value [2, 7] was 8.19 (5.67) h*ng/mL, the CL/F [2, 7] was 1504 L/h and 1504 (688)^a L/h and the Cmax [2, 7] was 2.65 (1.32) ng/mL. The Kel [2, 7] was 0.258 (0.092)^a h^-1, the Varea/F [2, 7] was 6328 (4164)^a L and the t½ [2, 7] was 3.07 (1.31)^a h. For the same compound, the Tmax [2, 7] was 1.50 (0.75-6.00) h, the “% change in mean Tmax” value [2, 8] was “+17%” and the “% change in t1/2” value [2, 8] was “+44%”. For the same compound, the “Change in mean Cmax” value ([2]; THC/CBD spray with ketoconazole vs THC/CBD spray alone) was “+27%”, the “Change in mean CL/F” value ([2]; co-administered with ketoconazole vs THC/CBD spray alone) was -39% and the “Substrate for the isoenzyme CYP3A4 (conclusion from ketoconazole interaction)” value ([2]; suggested by increased exposure with ketoconazole) was “substrates”. The “Geometric mean ratio of AUC(0-inf)” value [3, 9] was 0.962, the “Geometric mean ratio of AUC(0-t)” value [3, 9] was 0.964 and the “Geometric mean ratio of Cmax” value [3, 9] was 1.125. The “AUC(0-inf)” value [3, 10] was 8.10 (4.78) h*ng/mL, the “AUC(0-t)” value [3, 10] was 7.41 (4.75) h*ng/mL and the CL/F [3, 10] was 2284 (2520) L/h. For the same compound, the Cmax [3, 10] was 2.48 (1.06) ng/mL, the Kel [3, 10] was 0.357 (0.218) h^-1 and the Varea/F [3, 10] was 6052 (3384) L. For the same compound, the t½ [3, 10] was 2.37 (0.92) h, the Tmax [3, 10] was 1.25 (1.00-1.75) h and the “AUC(0-inf)” value [3, 11] was 9.39 (8.81) h*ng/mL. For the same compound, the “AUC(0-t)” value [3, 11] was 8.76 (8.62) h*ng/mL, the CL/F [3, 11] was 2161 (1990) L/h and the Cmax [3, 11] was 2.50 (1.85) ng/mL. The Kel [3, 11] was 0.305 (0.109) h^-1, the Varea/F [3, 11] was 6889 (5296) L and the t½ [3, 11] was 2.65 (1.25) h. The Tmax [3, 11] was 1.25 (0.77-3.02) h, the “Plasma concentrations and PK parameters compared with THC/CBD spray alone” value ([3]; THC/CBD spray at end of 6-day omeprazole dosing) was “similar” and the “% change in Tmax” value [3, 12] was 0%. For the same compound, the “% change in t1/2” value [3, 12] was -11%, the “Differences in CL/F on co-administration with omeprazole” value ([3]; THC/CBD spray with omeprazole vs alone) was “No significant differences” and the “Substrate for the isoenzyme CYP2C19 (conclusion from omeprazole interaction)” value ([3]; at the clinically relevant dose of THC/CBD spray investigated) was “not substrates”. The “Cmax and AUC % Co-efficient of Variation (CV%) range” value ([3]; THC/CBD spray alone, omeprazole group) was 74-98%, the “Cmax and AUC % Co-efficient of Variation (CV%) range” value ([3]; THC/CBD spray in combination with omeprazole) was 43-64% and the “Geometric mean ratio of AUC(0-inf)” value [4, 13] was 0.761. For the same compound, the “Geometric mean ratio of AUC(0-t)” value [4, 13] was 0.711, the “Geometric mean ratio of Cmax” value [4, 13] was 0.614 and the “AUC(0-inf)” value [4, 14] was 7.53 (2.99) h*ng/mL. For the same compound, the “AUC(0-t)” value [4, 14] was 6.53 (2.70) h*ng/mL, the CL/F [4, 14] was 1595 L/h and 1595 (473) L/h and the Cmax [4, 14] was 1.88 (1.07) ng/mL. For the same compound, the Kel [4, 14] was 0.189 (0.071) h^-1, the Varea/F [4, 14] was 10297 (5888) L and the t½ [4, 14] was 4.93 (3.91) h. The Tmax [4, 14] was 1.75 (1.25-2.57) h, the “AUC(0-inf)” value [4, 15] was 9.86 (3.35)^a h*ng/mL and the “AUC(0-t)” value [4, 15] was 9.10 (2.98) h*ng/mL. The CL/F [4, 15] was 1207 L/h and 1207 (373)^a L/h, the Cmax [4, 15] was 2.94 (1.21) ng/mL and the Kel [4, 15] was 0.197 (0.093)^a h^-1. The Varea/F [4, 15] was 7625 (4326)^a L, the t½ [4, 15] was 4.68 (3.42) ^a h and the Tmax [4, 15] was 1.01 (0.50-6.02) h. For the same compound, the “% change in mean t1/2” value [4, 16] was “+5%”, the “% change in median Tmax” value [4, 16] was “+73%” and the “Change in mean Cmax” value ([4]; THC/CBD spray with rifampicin vs THC/CBD spray alone) was -36%. For the same compound, the “Change in mean CL/F” value ([4]; after multiple dose rifampicin treatment vs THC/CBD spray alone) was “+32%”.
